T1: PaSuhB (Pseudomonas aeruginosa, UniProt Q9HXI4)
T1 sequence (Q9HXI4 1-271): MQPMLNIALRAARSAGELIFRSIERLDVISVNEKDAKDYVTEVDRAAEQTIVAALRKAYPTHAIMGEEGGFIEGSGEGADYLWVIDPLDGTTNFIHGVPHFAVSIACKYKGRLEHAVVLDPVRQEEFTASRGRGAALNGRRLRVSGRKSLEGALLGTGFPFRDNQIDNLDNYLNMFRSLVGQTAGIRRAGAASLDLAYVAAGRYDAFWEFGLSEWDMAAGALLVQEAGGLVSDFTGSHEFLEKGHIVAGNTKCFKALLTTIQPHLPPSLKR

B1: PaSuhB (Pseudomonas aeruginosa PAO1) (protein)
chain: T1 sequence (Q9HXI4 1-271)

How the values were obtained:
PaSuhB [1] = molecular target: T1, PaSuhB; assay: biochemical
PaSuhB [2] = molecular target: T1, PaSuhB; assay: biochemical; remark: listed apart in the source
purified protein = substrate: O=P(O)(O)O[C@@H]1[C@H](O)[C@H](O)[C@@H](O)[C@H](O)[C@H]1O; assay: purified protein; conditions: Mg2+, pH 8.0, 37 °C, no inhibitor

| Molecule | Kd (PaSuhB [1]) [µM] | IC50 (PaSuhB [2]) [µM] | Km (purified protein) [µM] |
| --- | --- | --- | --- |
| O=C(O)c1cc(O)c(O)c(O)c1 [GDE, 3,4,5-trihydroxybenzoic acid] | 8.71 | ~1340 |  |
| B1 |  |  | 43.82 |

Source: article doi:10.1101/2025.11.12.687946v2 (biorxiv, 2025)
